Results from patent US20260262643A1, “HERBICIDAL BENZOXAZINES” (FMC CORPORATION, priority 2022, published 2026).

Columns and labels:
[1] = test system: soybean; experiment: Test A preemergence; assay type: in vivo, Glycine max
In short: (§1)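 Loam/sand soil; pre-em directed soil spray at planting, post-em spray at 1–2 leaf (2–10 cm). Compound in non-phytotoxic solvent + surfactant. Greenhouse 10 d; visual injury vs untreated, 0 = no effect, 100 = complete control.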

[2] = test system: horseweed; experiment: Test A postemergence; assay type: in vivo, Erigeron canadensis
In short: as §1

[3] = test system: pigweed, palmer; experiment: Test A preemergence; assay type: in vivo, Amaranthus palmeri
In short: as §1

[4] = test system: ragweed; experiment: Test A preemergence; assay type: in vivo, Ambrosia artemisiifolia
In short: as §1

[5] = test system: kochia; experiment: Test A postemergence; assay type: in vivo, Bassia scoparia
In short: as §1

[6] = test system: goosegrass; experiment: Test A preemergence; assay type: in vivo, Eleusine indica
In short: as §1

[7] = test system: soybean; experiment: Test A postemergence; assay type: in vivo, Glycine max
In short: as §1

[8] = test system: corn; experiment: Test A preemergence; assay type: in vivo, Zea mays
In short: as §1

[9] = test system: oat, wild; experiment: Test A postemergence; assay type: in vivo, Avena fatua
In short: as §1

[10] = test system: pigweed, palmer; experiment: Test A postemergence; assay type: in vivo, Amaranthus palmeri
In short: as §1

[11] = test system: oat, wild; experiment: Test A preemergence; assay type: in vivo, Avena fatua
In short: as §1

[12] = test system: barnyardgrass; experiment: Test B flooded paddy test; assay type: in vivo, Echinochloa crus-galli; settings: 250 g ai/ha, Flood, 13 days, 0 to 100 scale (0 no effect, 100 complete control)
In short: (§2)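 Plants at the 2-leaf stage were flooded to 3 cm above the soil, and test compounds were applied directly into the paddy water, with that depth held throughout. After 13 days in a greenhouse, injury was rated visually against untreated controls on a 0–100 scale (100 = complete control).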

[13] = test system: kochia; experiment: Test A preemergence; assay type: in vivo, Bassia scoparia
In short: as §1

[14] = test system: blackgrass; experiment: Test A postemergence; assay type: in vivo, Alopecurus myosuroides
In short: as §1

[15] = test system: wheat; experiment: Test A preemergence; assay type: in vivo, Triticum aestivum
In short: as §1

[16] = test system: blackgrass; experiment: Test A preemergence; assay type: in vivo, Alopecurus myosuroides
In short: as §1

[17] = test system: ragweed; experiment: Test A postemergence; assay type: in vivo, Ambrosia artemisiifolia
In short: as §1

[18] = test system: foxtail, giant; experiment: Test A postemergence; assay type: in vivo, Setaria faberi
In short: as §1

[19] = test system: ryegrass, Italian; experiment: Test A postemergence; assay type: in vivo, Lolium multiflorum
In short: as §1

[20] = test system: corn; experiment: Test A postemergence; assay type: in vivo, Zea mays
In short: as §1

[21] = test system: goosegrass; experiment: Test A postemergence; assay type: in vivo, Eleusine indica
In short: as §1

[22] = test system: wheat; experiment: Test A postemergence; assay type: in vivo, Triticum aestivum
In short: as §1

[23] = test system: sedge, umbrella; experiment: Test B flooded paddy test; assay type: in vivo, Cyperus difformis; settings: 250 g ai/ha, Flood, 13 days, 0 to 100 scale (0 no effect, 100 complete control)
In short: as §2

[24] = test system: rice; experiment: Test B flooded paddy test; assay type: in vivo, Oryza sativa; settings: 250 g ai/ha, Flood, 13 days, 0 to 100 scale (0 no effect, 100 complete control)
In short: as §2

[25] = test system: galium; experiment: Test A postemergence; assay type: in vivo, Galium aparine
In short: as §1

[26] = test system: foxtail, giant; experiment: Test A preemergence; assay type: in vivo, Setaria faberi
In short: as §1

[27] = test system: ducksalad; experiment: Test B flooded paddy test; assay type: in vivo, Heteranthera limosa; settings: 250 g ai/ha, Flood, 13 days, 0 to 100 scale (0 no effect, 100 complete control)
In short: as §2

[28] = test system: ryegrass, Italian; experiment: Test A preemergence; assay type: in vivo, Lolium multiflorum
In short: as §1

[29] = 125 g ai/ha, visual injury after 10 days, 0 to 100 scale, 0 is no effect, 100 is complete control
[30] = 500 g ai/ha, 0 to 100 scale (0 no effect, 100 complete control), 10 days
[31] = 125 g ai/ha, postemergence, 10 days, visual injury, 0 to 100 scale (0 no effect, 100 complete control)
[32] = 500 g ai/ha, Postemergence, 0 to 100 scale

Cc1cccc2c1O[C@@H](C)CN2C(=O)c1cccc(-n2cnc(C3CC3)n2)c1 [Compound 54] was tested, and the “Plant response rating, Soybean” value [1, 29] was 0, the “Plant response rating, Soybean” value [1, 30] was 40 and the “Plant response rating, Horseweed” value [2, 31] was 0. The “Plant response rating, Horseweed” value [2, 32] was 20, the “Plant response rating, Pigweed, Palmer” value [3, 29] was 60 and the “Plant response rating, Pigweed, Palmer” value [3, 30] was 100. The “Plant response rating, Ragweed” value [4, 29] was 0, the “Plant response rating, Ragweed” value [4, 30] was 0 and the “Plant response rating, Kochia” value [5, 31] was 80. The “Plant response rating, Kochia” value [5, 32] was 90, the “Plant response rating, Goosegrass” value [6, 29] was 90 and the “Plant response rating, Goosegrass” value [6, 30] was 100. For the same molecule, the “Plant response rating, Soybean” value [7, 31] was 100, the “Plant response rating, Soybean” value [7, 32] was 100 and the “Plant response rating, Corn” value [8, 29] was 30. The “Plant response rating, Corn” value [8, 30] was 60, the “Plant response rating, Oat, Wild” value [9, 31] was 20 and the “Plant response rating, Oat, Wild” value [9, 32] was 40. For the same molecule, the “Plant response rating, Pigweed, Palmer” value [10, 31] was 50, the “Plant response rating, Pigweed, Palmer” value [10, 32] was 60 and the “Plant response rating, Oat, Wild” value [11, 29] was 20. The “Plant response rating, Oat, Wild” value [11, 30] was 50, the “Plant response rating, Barnyardgrass” value [12] was 25 and the “Plant response rating, Kochia” value [13, 29] was 80. For the same molecule, the “Plant response rating, Kochia” value [13, 30] was 90, the “Plant response rating, Blackgrass” value [14, 31] was 0 and the “Plant response rating, Blackgrass” value [14, 32] was 50. The “Plant response rating, Wheat” value [15, 29] was 20, the “Plant response rating, Wheat” value [15, 30] was 30 and the “Plant response rating, Blackgrass” value [16, 29] was 40. The “Plant response rating, Blackgrass” value [16, 30] was 80, the “Plant response rating, Ragweed” value [17, 31] was 0 and the “Plant response rating, Ragweed” value [17, 32] was 50. For the same molecule, the “Plant response rating, Foxtail, Giant” value [18, 31] was 70, the “Plant response rating, Foxtail, Giant” value [18, 32] was 90 and the “Plant response rating, Ryegrass, Italian” value [19, 31] was 30. For the same molecule, the “Plant response rating, Ryegrass, Italian” value [19, 32] was 60, the “Plant response rating, Corn” value [20, 31] was 30 and the “Plant response rating, Corn” value [20, 32] was 40. The “Plant response rating, Goosegrass” value [21, 31] was 40, the “Plant response rating, Goosegrass” value [21, 32] was 50 and the “Plant response rating, Wheat” value [22, 31] was 20. For the same molecule, the “Plant response rating, Wheat” value [22, 32] was 40, the “Plant response rating, Sedge, Umbrella” value [23] was 90 and the “Plant response rating, Rice” value [24] was 30. For the same molecule, the “Plant response rating, Galium” value [25, 31] was 100, the “Plant response rating, Galium” value [25, 32] was 100 and the “Plant response rating, Foxtail, Giant” value [26, 29] was 90. The “Plant response rating, Foxtail, Giant” value [26, 30] was 100, the “Plant response rating, Ducksalad” value [27] was 30 and the “Plant response rating, Ryegrass, Italian” value [28, 29] was 70. The “Plant response rating, Ryegrass, Italian” value [28, 30] was 100.
